Experimental data published in PubChem BioAssay AID180 (DTP/NCI, 2004).
“And” between values parts separate entries of the source, which are not always exact repeats. Equal entries are not always repeated.

Test system: BDF1 mice, Adenocarcinoma 755 s.c., tumor weight T/C
Assay: NCI In Vivo Anticancer Drug Screen. Data for tumor model Adenocarcinoma 755 (subcutaneous) in B6D2F1 (BDF1) mice
Conditions: endpoint: mean tumor weight, higher = larger tumour
Summary of the method: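 Values express treated (T) relative to vehicle-dosed control (C) animals, based on survival or tumour size measured after compound treatment of mice bearing a transplanted tumour.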

[1] = dose: 125.0 mg/kg/injection, schedule: Q01DX011 (ip), vehicle: carboxymethylcellulose (CMC)
[2] = dose: 250.0 mg/kg/injection, schedule: Q01DX011 (ip), vehicle: carboxymethylcellulose (CMC)
[3] = dose: 25.0 mg/kg/injection, schedule: Q01DX011 (ip), vehicle: methylcellulose (MC)
[4] = dose: 75.0 mg/kg/injection, schedule: Q01DX011 (ip), vehicle: methylcellulose (MC)
[5] = dose: 225.0 mg/kg/injection, schedule: Q01DX011 (ip), vehicle: methylcellulose (MC)
[6] = dose: 25.0 mg/kg/injection, schedule: Q01DX011 (ip), vehicle: saline
[7] = dose: 50.0 mg/kg/injection, schedule: Q01DX011 (ip), vehicle: saline
[8] = dose: 30.0 mg/kg/injection, schedule: Q01DX011 (ip), vehicle: carboxymethylcellulose (CMC)
[9] = dose: 60.0 mg/kg/injection, schedule: Q01DX011 (ip), vehicle: carboxymethylcellulose (CMC)
[10] = dose: 240.0 mg/kg/injection, schedule: Q01DX011 (ip), vehicle: carboxymethylcellulose (CMC)

Structure (SMILES): CNC(C)=O
- T/C [1]: 79 % of control and 86 % of control
- T/C [2]: 104 % of control and 85 % of control
- T/C (dose: 1000.0 mg/kg/injection, schedule: Q01DX011 (ip), vehicle: carboxymethylcellulose (CMC)): 60 % of control and 82 % of control

Structure (SMILES): O=CNC(Cc1cccc(N(CCCl)CCCl)c1)C(=O)O (stereo not given)
- T/C (dose: 0.25 mg/kg/injection, schedule: Q01DX011 (ip), vehicle: methylcellulose (MC)): 96 % of control
- T/C (dose: 0.5 mg/kg/injection, schedule: Q01DX011 (ip), vehicle: methylcellulose (MC)): 59 % of control
- T/C (dose: 1.0 mg/kg/injection, schedule: Q01DX011 (ip), vehicle: methylcellulose (MC)): 57 % of control
- T/C (dose: 1.1 mg/kg/injection, schedule: Q01DX011 (ip), vehicle: methylcellulose (MC)): 36 % of control
- T/C (dose: 2.0 mg/kg/injection, schedule: Q01DX011 (ip), vehicle: methylcellulose (MC)): 41 % of control
- T/C (dose: 2.25 mg/kg/injection, schedule: Q01DX011 (ip), vehicle: methylcellulose (MC)): 22 % of control
- T/C (dose: 4.5 mg/kg/injection, schedule: Q01DX011 (ip), vehicle: methylcellulose (MC)): 4 % of control

Structure (SMILES): CC(=O)OCC(=O)[C@@]1(O)CC[C@H]2[C@@H]3C[C@H](C)C4=CC(=O)C=C[C@]4(C)[C@H]3[C@@H](O)C[C@@]21C
- T/C (dose: 2.5 mg/kg/injection, schedule: Q01DX011 (sc), vehicle: steriod suspending solution): 70 % of control
- T/C (dose: 3.8 mg/kg/injection, schedule: Q01DX011 (sc), vehicle: steriod suspending solution): 77 % of control
- T/C (dose: 5.0 mg/kg/injection, schedule: Q01DX011 (sc), vehicle: steriod suspending solution): 57 % of control
- T/C (dose: 7.5 mg/kg/injection, schedule: Q01DX011 (sc), vehicle: steriod suspending solution): 68 % of control
- T/C (dose: 10.0 mg/kg/injection, schedule: Q01DX011 (sc), vehicle: steriod suspending solution): 35 % of control
- T/C (dose: 15.0 mg/kg/injection, schedule: Q01DX011 (sc), vehicle: steriod suspending solution): 37 % of control
- T/C (dose: 20.0 mg/kg/injection, schedule: Q01DX011 (sc), vehicle: steriod suspending solution): 25 % of control and 40 % of control
- T/C (dose: 40.0 mg/kg/injection, schedule: Q01DX011 (sc), vehicle: steriod suspending solution): 14 % of control and 20 % of control
- T/C (dose: 80.0 mg/kg/injection, schedule: Q01DX011 (sc), vehicle: steriod suspending solution): 6 % of control

Structure (SMILES): CC(C)Cn1cnc2c(SCC(=O)O)nc(N)nc21
- T/C [3]: 114 % of control
- T/C [4]: 85 % of control
- T/C [5]: 114 % of control

Structure (SMILES): c1cc(CSc2ncnc3nc[nH]c23)ccn1
- T/C (dose: 3.1 mg/kg/injection, schedule: Q01DX011 (ip), vehicle: methylcellulose (MC)): 72 % of control
- T/C (dose: 6.25 mg/kg/injection, schedule: Q01DX011 (ip), vehicle: methylcellulose (MC)): 39 % of control
- T/C (dose: 12.5 mg/kg/injection, schedule: Q01DX011 (ip), vehicle: methylcellulose (MC)): 29 % of control
- T/C [3]: 16 % of control and 25 % of control
- T/C (dose: 50.0 mg/kg/injection, schedule: Q01DX011 (ip), vehicle: methylcellulose (MC)): 12 % of control
- T/C (dose: 100.0 mg/kg/injection, schedule: Q01DX011 (ip), vehicle: methylcellulose (MC)): 7 % of control
- T/C (dose: 200.0 mg/kg/injection, schedule: Q01DX011 (ip), vehicle: methylcellulose (MC)): 2 % of control

Structure (SMILES): Cn1cnc2nc[nH]c2c1=S
- T/C [3]: 64 % of control
- T/C [4]: 75 % of control

Structure (SMILES): CC1(C)N=C(N)N=C(N)N1c1cccc(Cl)c1
- T/C (dose: 1.15 mg/kg/injection, schedule: Q01DX011 (ip), vehicle: carboxymethylcellulose (CMC)): 89 % of control
- T/C (dose: 2.3 mg/kg/injection, schedule: Q01DX011 (ip), vehicle: carboxymethylcellulose (CMC)): 72 % of control
- T/C (dose: 4.6 mg/kg/injection, schedule: Q01DX011 (ip), vehicle: carboxymethylcellulose (CMC)): 121 % of control
- T/C (dose: 9.2 mg/kg/injection, schedule: Q01DX011 (ip), vehicle: carboxymethylcellulose (CMC)): 88 % of control

Structure (SMILES): CCCCCn1cnc2c(=S)nc[nH]c21
- T/C (dose: 31.0 mg/kg/injection, schedule: Q01DX011 (ip), vehicle: carboxymethylcellulose (CMC)): 94 % of control
- T/C (dose: 62.0 mg/kg/injection, schedule: Q01DX011 (ip), vehicle: carboxymethylcellulose (CMC)): 78 % of control
- T/C [1]: 43 % of control
- T/C [2]: 10 % of control
- T/C (dose: 500.0 mg/kg/injection, schedule: Q01DX011 (ip), vehicle: carboxymethylcellulose (CMC)): 6 % of control

Structure (SMILES): Cc1ccccc1Nc1cc(Cl)nc(N)n1
- T/C (dose: 15.0 mg/kg/injection, schedule: Q01DX011 (ip), vehicle: methylcellulose (MC)): 73 % of control
- T/C (dose: 31.0 mg/kg/injection, schedule: Q01DX011 (ip), vehicle: methylcellulose (MC)): 85 % of control
- T/C (dose: 62.0 mg/kg/injection, schedule: Q01DX011 (ip), vehicle: methylcellulose (MC)): 75 % of control
- T/C (dose: 125.0 mg/kg/injection, schedule: Q01DX011 (ip), vehicle: methylcellulose (MC)): 120 % of control
- T/C (dose: 250.0 mg/kg/injection, schedule: Q01DX011 (ip), vehicle: methylcellulose (MC)): 93 % of control

Structure (SMILES): CCCCN(C)N=Nc1ccc(CCCC(=O)OCC)cc1
- T/C [6]: 64 % of control
- T/C [7]: 57 % of control
- T/C (dose: 75.0 mg/kg/injection, schedule: Q01DX011 (ip), vehicle: saline): 50 % of control

Structure (SMILES): CC(=O)Nc1nc(Cl)c2ncn(C3CCCO3)c2n1 (stereo not given)
- T/C [8]: 106 % of control
- T/C [9]: 38 % of control
- T/C [10]: 19 % of control and 42 % of control

Structure (SMILES): OCCn1cnc2c(=S)nc[nH]c21
- T/C [3]: 38 % of control
- T/C [4]: 74 % of control
- T/C [5]: 34 % of control

Structure (SMILES): Cn1c(=O)c2ncn(CC(=O)O)c2n(C)c1=O
- T/C [8]: 45 % of control
- T/C [9]: 156 % of control
- T/C (dose: 120.0 mg/kg/injection, schedule: Q01DX011 (ip), vehicle: carboxymethylcellulose (CMC)): 99 % of control
- T/C [10]: 120 % of control

Structure (SMILES): O=c1[nH]c(=O)c2[nH]c(N=Nc3ccc(N(CCCl)CCCl)cc3)nc2[nH]1
- T/C [6]: 74 % of control
- T/C [7]: 56 % of control
- T/C (dose: 100.0 mg/kg/injection, schedule: Q01DX011 (ip), vehicle: saline): 6 % of control and 19 % of control

Structure (SMILES): O=NN(CCCl)C(=O)NCCCl
- T/C (dose: 0.45 mg/kg/injection, schedule: Q01DX011 (ip), vehicle: carboxymethylcellulose (CMC)): 63 % of control and 66 % of control and 75 % of control
- T/C (dose: 0.9 mg/kg/injection, schedule: Q01DX011 (ip), vehicle: carboxymethylcellulose (CMC)): 90 % of control and 98 % of control and 86 % of control
- T/C (dose: 1.62 mg/kg/injection, schedule: Q01DX011 (ip), vehicle: saline): 93 % of control and 99 % of control
- T/C (dose: 1.75 mg/kg/injection, schedule: Q01DX011 (ip), vehicle: carboxymethylcellulose (CMC)): 47 % of control
- T/C (dose: 3.25 mg/kg/injection, schedule: Q01DX011 (ip), vehicle: saline): 79 % of control and 84 % of control
- T/C (dose: 3.5 mg/kg/injection, schedule: Q01DX011 (ip), vehicle: carboxymethylcellulose (CMC)): 36 % of control and 40 % of control (2×)
- T/C (dose: 6.5 mg/kg/injection, schedule: Q01DX011 (ip), vehicle: carboxymethylcellulose (CMC)): 32 % of control and 34 % of control
- T/C (dose: 6.5 mg/kg/injection, schedule: Q01DX011 (ip), vehicle: saline): 59 % of control and 78 % of control
- T/C (dose: 7.0 mg/kg/injection, schedule: Q01DX011 (ip), vehicle: carboxymethylcellulose (CMC)): 18 % of control (2×) and 40 % of control
- T/C (dose: 13.0 mg/kg/injection, schedule: Q01DX011 (ip), vehicle: carboxymethylcellulose (CMC)): 13 % of control

Structure (SMILES): Cc1cc(N=Nc2ccc(-c3ccc(N=Nc4ccc(O)c(C(=O)O)c4)cc3)cc2)c(N)c(N=Nc2ccc(C(=O)Nc3ccc4cc(S(=O)(=O)O)ccc4c3)cc2)c1N
- T/C (dose: 45.0 mg/kg/injection, schedule: Q01DX011 (ip), vehicle: carboxymethylcellulose (CMC)): 158 % of control
- T/C (dose: 65.0 mg/kg/injection, schedule: Q01DX011 (ip), vehicle: carboxymethylcellulose (CMC)): 119 % of control
- T/C (dose: 100.0 mg/kg/injection, schedule: Q01DX011 (ip), vehicle: carboxymethylcellulose (CMC)): 69 % of control
- T/C (dose: 150.0 mg/kg/injection, schedule: Q01DX011 (ip), vehicle: carboxymethylcellulose (CMC)): 72 % of control

Structure (SMILES): Cc1ccc2ccccc2c1CSc1nc(N)nc2c1ncn2CC(C)C
- T/C [3]: 115 % of control
- T/C [4]: 80 % of control
- T/C [5]: 97 % of control

Structure (SMILES): CCCN(C)/N=N/c1nc[nH]c1C(N)=O
- T/C (dose: 5.0 mg/kg/injection, schedule: Q01DX011 (ip), vehicle: carboxymethylcellulose (CMC)): 91 % of control
- T/C (dose: 7.5 mg/kg/injection, schedule: Q01DX011 (ip), vehicle: carboxymethylcellulose (CMC)): 87 % of control
- T/C (dose: 10.0 mg/kg/injection, schedule: Q01DX011 (ip), vehicle: carboxymethylcellulose (CMC)): 51 % of control
- T/C (dose: 15.0 mg/kg/injection, schedule: Q01DX011 (ip), vehicle: carboxymethylcellulose (CMC)): 47 % of control
- T/C (dose: 20.0 mg/kg/injection, schedule: Q01DX011 (ip), vehicle: carboxymethylcellulose (CMC)): 39 % of control
- T/C [8]: 30 % of control
- T/C (dose: 40.0 mg/kg/injection, schedule: Q01DX011 (ip), vehicle: carboxymethylcellulose (CMC)): 37 % of control
